# Source: paper PMC12881674, “Activation of TRPV3 channels in bladder cancer cells stimulates ATP release” (Molecular Pharmacology, 2025)
# Test system: KU-19-19 cells
# Assay: ATPlite luminescence assay of extracellular ATP
# Format: cell-based, human
# Details: 50 μM AV3-1, 30 minutes
# Protocol: KU-19-19 cells (1 × 10^5 per well) were plated in 24-well plates and cultured for 24 hours. Medium was removed, and wells were washed with PBS before adding 1 mL of drugs dissolved in PBS. After 30 minutes, 100 μL of the supernatant was transferred to a 96-well plate. ATP content was measured using the ATPlite luminescence ATP assay (Revvity, catalog number 6016943) following manufacturer’s instructions. Luminescence was recorded using a Polarstar Omega reader and normalized to control wells without addition of drugs.
# Fig. 4 TRPV3 activation by AV3-1 was enhanced by cholesterol supplementation and causes ATP release in KU-19-19 bladder cancer cells. […] Current amplitudes were recorded using voltage ramps from −100 mV to +100 mV (500-millisecond duration) and expressed as current density (pA/pF) measured at +100 mV and −100 mV. (C) Quantification of current densities (pA/pF) at −100 mV (inward current) and +100 mV (outward current) at the time points (1, 2) as indicated in (A, B). […] Statistical significance was determined using Kruskal-Wallis ANOVA followed by Conover test; ∗P < .05. […] Inset: Box-and-whisker plots of AV3-1 potencies under control conditions (open box) and following cholesterol supplementation (gray box), derived from individual concentration-response fits and expressed as pEC50 (-log10(EC50 [M])). […]
smiles,measurement,value
COC(=O)C12CN(Cc3ccccc3)CC1(C(=O)OC)CN(Cc1ccccc1)C2 (stereo not shown) [AV3-1],ATP release compared with untreated control cells,statistically significant increased ATP release
